Like-named read-outs stand apart in the source and are kept apart here.
Assays:
[1] = test system: C57BL/6 mice on high-fat diet; details: intraperitoneal
Excerpt: C57BL/6 mice (n=6/group) were put either on high-fat (HF) or normal chow (NC) diet.

HepG2 cells [2] = test: glucose production, G6P expression and AMPK phosphorylation; type: cell-based, human; details: for expression of glucose 6-phosphatase (G6P) / glucose production: HepG2, 0.1 μM pyrvinium, 10 μM YW1149; for phosphorylation of AMPK: HepG2 cells
HepG2 cells [3] = test: expression of Wnt pathway proteins; type: cell-based, human; details: FIG. 3
Method: HepG2 cells were treated by YW1149 (vehicle, 0.1, 1 μM).

Wnt/β-catenin pathway = test: dual-luciferase TCF/LEF reporter assay, LiCl-activated, HEK293 cells; type: cell-based; details: Homo sapiens; for activity at 1 µM: HEK293, 24 h, At 1 μM concentration, remaining Wnt signaling activity, read-out: RLU % (Relative Light Units in reporter gene assays); for IC50: HEK293
[4] = test system: C57BL/6 mice on high-fat diet; test: YW1128 in high-fat diet mice (liver histology, IPGTT, body weight); type: in vivo
Method: Mice were treated with YW1128 and representative liver histology was observed through H&E staining. C57BL/6 mice were placed on a high-fat diet. Seven weeks later (week 0), the mice received either vehicle or YW1128 by IP injection for 11 weeks. Regarding treatment with YW1128, the mice were initially treated at a dose of 10 mg/kg/2 days, which was increased to 40 mg/kg/2 days from week 8. The mice were then euthanized at the end of 11 weeks. Liver histology for vehicle (FIGS. 33A and 33B) and YW1128 (FIGS. 33C and 33D) was examined by H&E staining.
An intraperitoneal glucose tolerance test (IPGTT) was conducted on high-fat diet (HFD) groups at the end of the study. C57BL/6 mice (n=3-4 per group) were put on a high fat diet. Seven weeks later (week 0), the mice received either vehicle or YW1128 by IP injection for 11 weeks. Regarding the treatment with YW1128, the mice were initially treated at a dose of 10 mg/kg/2 days, which was increased to 40 mg/kg/2 days from week 8. FIG. 34A describes the glucose levels at up to 120 minutes post-injection at week 0. FIG. 34B describes the glucose levels at up to 120 minutes post-injection at week 11, where *P<0.05 and **P<0.01, compared to the […].
The effect of YW1128 on body weight was also observed in mice having normal diets (NC) and those having high-fat (HF) diets. C57BL/6 mice (n=3-4 per group) were put on either an HF diet or an NC diet. Seven weeks later, the mice received either YW1128 or vehicle by IP injection. Regarding the treatment with YW1128, the mice were treated at a dose of 40 mg/kg/2 days for seven weeks. The results of such study are shown in FIG. 35, where *P<0.05 for the comparison between HF-vehicle and the other three groups.

[5] = test system: C57BL/6 mice on Western high-fat diet; test: YW1128 on high-fat diet-induced steatosis, liver protein analysis; type: in vivo; details: I.P. 40 mg/kg/2 days, 11 weeks
Excerpt: FIGS. 36A to 36D illustrate the effect of YW1128 on a high-fat diet (HFD)-induced steatosis. FIG. 36A illustrates representative liver histology by H&E staining. FIG. 36B illustrates an intraperitoneal glucose tolerance test (IPGTT) performed at the end of a study. FIG. 36C illustrates body weight monitoring performed during the treatment.
C57BL/6 mice (n=7/group) were put on a Western high-fat diet (HFD) or normal chow diet (NCD). Seven weeks later, the mice received either vehicle or YW1128 by I.P., 40 mg/kg/2 days, for 11 weeks. Representative liver histology was measured by H&E staining (FIG. 36A). An intraperitoneal glucose tolerance test (IPGTT) was conducted at the end of the study (FIG. 36B). Body weight for the mice was monitored during the treatment (FIG. 36C).

[6] = test system: WiDr, SW620, HT29, HEK_LTV, and T84 cell lines; test: cell proliferation and growth inhibition assay (CCK-8), cell line panel; type: cell-based, human; details: 72 h, FIG. 12
Method: Cell Proliferation and Growth Inhibition Assay. HT-29, HCT-116, WiDr, SW620, SW480, T84, A549, MCF-7, HepG2, Hela cells were cultured in respective growth medium. Cells of log phase were used. 3000-5000 cells/well were seeded in 96-well plates with a 100 μL volume. After 24 h, Compounds were dissolved to […] with DMSO, and a 3-fold serial dilution of the compounds from 5×10^−5 M to […] was performed. 2 μL of compound solution was added to 998 μL of growth medium, the mixture was vortexed sufficiently. 100 μL of the mixture was correspondingly added to the 96-well plate. 2 μL DMSO instead of compound solution was used as the 0% inhibitor control. After coincubation for 72 h, the old medium was removed and 100 μL of 10% CCK-8 in culture medium was added. 2 h later the plates were read in the microplate reader (Bio-Rad) at 450 nm. The data was calculated using Graph Pad Prism version 5.0. The IC50 were fitted using a nonlinear regression model with a sigmoidal dose response.

in vivo = test: in vivo
Excerpt: Representative data from each group is shown.
Blood samples were collected at multiple time points. […] Ultra-performance liquid chromatography system with a triple quadruple detector (UPLC/TQD) was used for compound quantitation.

primary hepatocytes = test: glucose production in primary hepatocytes; type: cell-based
Excerpt: In light of this evidence, a class of triazole-based inhibitors were synthesized and tested, as described herein.

HEK293 cells = test: cytotoxicity, Cell Counting Kit-8 colorimetric assay; details: Homo sapiens, HEK293, read-out: anti-proliferation IC50
Method: The cytotoxicity of series of a compound of the invention was measured using a colorimetric assay, Cell Counting Kit-8 (Sigma) in HEK293 cells.

[7] = metabolic stability, substrate depletion in liver S9 fraction; type: in vitro ADME, mouse; details: 37 degrees, after one hour
Method: (§1) FIGS. 5A and 5B illustrate the metabolic stability of YW1149. S9 fraction from mouse liver tissues (FIG. 5A) and mouse plasma samples (FIG. 5B) were mixed with YW1149 and incubated at 37 degrees, respectively. *P<0.05 as compared to time 0.
(§2) The metabolic stability of these compounds was then estimated using YW1149 as a prototypical compound, with in vitro substrate depletion in mouse liver tissue S9 fraction as previously described (Jones and Houston, 2004).

plasma stability = type: in vitro ADME; details: mouse plasma, 37 degrees
Method: as §1, §2

SW480 cells = test: Western blot of Wnt signaling proteins; type: cell-based, human; details: 48 h
Method: Using a Wester Blot, compounds YW2013 and YW2123 were tested in SW480 cells to determine their effect on the expression of Axin-2, β-catenin, and c-myc.
Western Blot: 1×10^6 Cells of SW480 cells were seeded into 6-well plates overnight. A concentration of 3, 10, 30 μM/L YW2013 and 3, 10 μM/L YW2123 was added after 24 h, medium with 1‰ DMSO was used as the control. Cells were exposed to treatment for 48 h. The dishes was washed twice using precold PBS and 100 μL of RIPA then added. After incubating plates on ice for 15 min, cells were scraped carefully and centrifuged for 10 minutes at 14,000 g at 4° C. immediately. The remaining supernatant and lysates were maintained at −70° C. A Bio-Rad protein assay kit (500-0002) was used to quantitate the cell lysates. The concentration was adjusted to 2 mg/ml. A ratio of 1:1 2× loading buffer was added and the samples were denatured by boiling. Protein samples were separated on 4-15% SDS-polyacrylamide gel (SDS-PAGE) and transferred onto the PVDF membranes (Millipore). Immune complexes were formed by incubation of the proteins with primary antibody β-catenin, c-myc, Axin-2, and GAPDH at 4° C. overnight. A second antibody with horseradish peroxidase (HRP, sigma) conjugated was used then. Blots were developed by enhanced chemiluminescence (Thermo).

SW620 cells = test: quantitative real-time RT-PCR of Wnt regulated genes; type: cell-based, human
Method: Quantitative Real-time RT-PCR. The total RNA extracted from the cells using TRIzol (Invitrogen) and 2 μg was reverse transcribed in a 20-μl volume system (QuantiTect Reverse Transcription Kit (Qiagen)) for quantitative PCR assays. SYBR green quantitative real-time PCR analyses were carried out using gene-specific primers (working concentration at 250 nM) in StepOnePlus real time PCR system (Applied Biosystems, AB), using the housekeeping gene GAPDH as an internal control. The PCR running procedure was as follows: 4 min denaturing at 95° C., followed by 40 cycles of 30 seconds of denaturing at 95° C. and then annealing and extension at 60° C. for 1 min.

HT-29 cells = test: colony formation assay; type: cell-based, human; details: 0-30 μM, 2 weeks
Method: Colony Formation Assay. HT-29 and SW620, SW480 cells were seeded into 6-well dishes with the medium containing 0, 1, 3, 10, 30 μM/L of YW2013 or YW2044, 500 cells/well. After 2 weeks, cells were fixed with 4% paraformaldehyde solution and stained with 0.5% crystal violet for 1 h at room temperature. The images of colonies were captured by microscopy.

[8] = Table 3, values in nM, read-out: IC50
[9] = high-fat diet mice, IP injection

SMILES: Cc1cc(/C=C/c2ccc3cc(N(C)C)ccc3[n+]2C)c(C)n1-c1ccccc1 [Pyrvinium, pyrvinium, reference compound]
- weight gain [1]: decrease weight gain
- expression of glucose 6-phosphatase (G6P) (HepG2 cells [2]): significantly suppress
- glucose production (HepG2 cells [2]): significantly suppress
- phosphorylation of AMPK (HepG2 cells [2]): increase phosphorylation
- Axin protein expression (HepG2 cells [3]): increased
- β-catenin and target gene c-Myc protein (HepG2 cells [3]): attenuation

SMILES: Cc1ccccc1-n1nnc(C(=O)Nc2ccc3ccccc3n2)c1C [YW1128, 5-Methyl-N-(quinolin-2-yl)-1-(o-tolyl)-1H-1,2,3-triazole-4-carboxamide]
- activity at 1 µM (Wnt/β-catenin pathway): 3.7%
- IC50 (Wnt/β-catenin pathway; [8]): 7.7 nM
- liver histology (H&E), fatty liver disease ([4]; high-fat diet mice, IP 11 weeks): did not exhibit any histology of fatty liver disease
- body weight gain [4, 9]: decrease body weight gain
- glucose tolerance (IPGTT) [4, 9]: significantly improve glucose tolerance
- toxicity of subchronic treatment ([4]; mice, IP, up to 40 mg/kg/2 days): did not cause any obvious toxicity
- CK1a in liver [5]: did not show any significant change
- phosphorylation of AMPKα1 at threonine 172 (p-AMPKα) in liver ([5]; vs vehicle-treated livers, 40 mg/kg): increased phosphorylation
- growth inhibitory activity [6]: micromolar growth inhibitory activity

SMILES: COc1ccccc1-n1nnc(C(=O)Nc2ccc3ccccc3n2)c1C [YW1149, 1-(2-Methoxyphenyl)-5-methyl-N-(quinolin-2-yl)-1H-1,2,3-triazole-4-carboxamide]
- activity at 1 µM (Wnt/β-catenin pathway): 5%
- IC50 (Wnt/β-catenin pathway; FIG. 1, cellular luciferase gene reporter assay, read-out: IC50, Wnt/β-catenin pathway inhibition): 74 nM
- IC50 (Wnt/β-catenin pathway; [8]): 88 nM
- bioavailability (in vivo; C57BL/6, mouse): 75%
- intravenous half-life (in vivo; mouse, iv, 10 mg/kg): one
- glucose production (primary hepatocytes): reduces glucose production
- IC50 (HEK293 cells): > 100000 nM
- metabolism in liver S9 fraction [7]: Only minor metabolism was observed after one hour
- stability in plasma (plasma stability): stable in plasma for up to eight hours
- expression of glucose 6-phosphatase (G6P) (HepG2 cells [2]): significantly suppress
- glucose production (HepG2 cells [2]): significantly suppress
- phosphorylation of AMPK (HepG2 cells [2]): increase phosphorylation
- Axin protein expression (HepG2 cells [3]): increased
- β-catenin and target gene c-Myc protein (HepG2 cells [3]): attenuation

SMILES: CCc1ccccc1-n1ncc(C(=O)Nc2ccc3ccccc3n2)c1C [YW2044, 1-(2-Ethylphenyl)-5-methyl-N-(quinolin-2-yl)-1H-pyrazole-4-carboxamide]
- growth inhibitory activity [6]: micromolar growth inhibitory activity
- Axin-2 expression (SW480 cells): noticeable effect
- mRNA expression of Wnt regulated genes (Axin-2 and/or cyclin D1) (SW620 cells): reduce mRNA expression
- colony formation (HT-29 cells): dose dependent reduction
